# Results as given in patent publication US20180057505A1, “BICYCLIC HETEROARYL COMPOUNDS USEFUL AS INHIBITORS OF THE PAR-2 SIGNALING PATHWAY” (VERTEX PHARMACEUTICALS INCORPORATED, priority 2015, published 2018).
# Legend:
# Assay type in all cases: cell-based
# [1] = test system: UTP-stimulated Ca2+ response in HT-29 cells; experiment: Ca FLIPR TETRA assay, ANTAGONIST mode, activator 0.6 μM UTP; conditions: HT-29 cells, activator 0.6 μM UTP
# Procedure, shortened: (§1)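 Ca2+ flux by FLIPR Tetra in HT-29 cells after 30 min r.t. compound preincubation, followed by stimulation with SLIGKV 8 μM, thrombin 1 U/mL, trypsin 3.1 U/mL or UTP 0.6 μM (final). Cells were dye-loaded with calcium 5 beforehand; compound-only responses were also read.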
# [2] = target: T1, PAR2 (HT-29 cells) (Homo sapiens, UniProt P55085); experiment: Ca FLIPR TETRA assay, ANTAGONIST mode, activator 8 μM SLIGKV; conditions: HT-29 cells, activator 8 μM SLIGKV; maximal antagonist concentration per Method (A: 0.1, 1 or 2 μM; B: 50 μM)
# T1 construct: host or cells: HT-29
# T1 sequence (P55085 26-397): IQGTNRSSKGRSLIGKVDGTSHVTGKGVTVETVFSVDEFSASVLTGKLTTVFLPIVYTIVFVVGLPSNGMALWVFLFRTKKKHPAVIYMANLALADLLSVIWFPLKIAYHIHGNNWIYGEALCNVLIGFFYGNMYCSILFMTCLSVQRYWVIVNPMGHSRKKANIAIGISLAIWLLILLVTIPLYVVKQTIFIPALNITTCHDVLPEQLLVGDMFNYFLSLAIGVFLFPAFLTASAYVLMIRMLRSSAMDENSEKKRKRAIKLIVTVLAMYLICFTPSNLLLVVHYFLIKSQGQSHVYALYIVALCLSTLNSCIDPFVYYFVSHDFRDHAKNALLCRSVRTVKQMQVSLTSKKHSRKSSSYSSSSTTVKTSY
# Procedure, shortened: as §1
# [3] = test system: Thrombin-stimulated Ca2+ response in HT-29 cells; experiment: Ca FLIPR TETRA assay, ANTAGONIST mode, activator 1 U/mL Thrombin; conditions: HT-29 cells, activator 1 U/mL Thrombin
# Procedure, shortened: as §1
# [4] = target: T1, PAR2 (HT-29 cells); experiment: Ca FLIPR TETRA assay, ANTAGONIST mode, activator 3.1 U/mL trypsin; conditions: HT-29 cells, activator 3.1 U/mL trypsin; maximal antagonist concentration per Method (A: 0.1, 1 or 2 μM; B: 50 μM)
# Procedure, shortened: as §1
Structure (SMILES),IC50 ([1]; Homo sapiens),IC50 [2],IC50 ([3]; Homo sapiens),IC50 [4],IC50 [1],IC50 [3]
CC(C)(C)c1cc(-c2ccc(F)cc2)nc2cc(C(=O)N3CCN(S(=O)(=O)C4CC4)CC3(C)C)oc12 [Example I-200],> 1000 nM,3 nM,> 1000 nM,6 nM,–,–
CC(C)(C)c1cc(-c2ccc(F)cc2)nc2cc(C(=O)N3CCN(S(=O)(=O)c4c[nH]cn4)CC3(C)C)oc12 [Example I-201],> 1000 nM,4 nM,> 1000 nM,7 nM,–,–
CCC(C)c1cc(-c2ccc(F)cc2)nc2cc(C(=O)N3CCNC(=O)C3(C)C)oc12 (stereo not drawn) [Example I-202],> 1000 nM,5 nM,> 1000 nM,5 nM,–,–
CC1(C)C(=O)NCCN1C(=O)c1cc2nc(-c3ccc(F)cc3)cc(C3CCCC3)c2o1 [Example I-203],> 1000 nM,5 nM,> 1000 nM,10 nM,–,–
CC1(O)CC(C(=O)C2CCN(C(=O)c3cc4nc(-c5ccc(F)cc5)cc(C5(C#N)CC(F)(F)C5)c4o3)C(C)(C)C2)C1 (stereo not drawn) [Example I-204],–,6 nM,–,4 nM,> 1000 nM,> 1000 nM
CC1(C)CN(C(=O)C2CC(O)(C(F)(F)F)C2)CCN1C(=O)c1cc2nc(-c3ccc(F)cc3)cc(C3(C#N)CC(F)(F)C3)c2o1 (stereo not drawn) [Example I-205],> 1000 nM,0.6 nM,> 1000 nM,1 nM,–,–
CN1CCN(C(=O)c2cc3nc(-c4ccc(F)cc4)cc(C(C)(C)C)c3o2)C(C)(C)C1=O [Example I-206],> 1000 nM,4 nM,> 1000 nM,4 nM,–,–
CC(C)(C)c1cc(-c2ccc(F)cc2)nc2cc(C(=O)N3CCN(CC(=O)O)C(=O)C3(C)C)oc12 [Example I-209],> 1000 nM,220 nM,> 1000 nM,370 nM,–,–
COCCN1CCN(C(=O)c2cc3nc(-c4ccc(F)cc4)cc(C(C)(C)C)c3o2)C(C)(C)C1=O [Example I-210],> 1500 nM,2 nM,> 1500 nM,3 nM,–,–
CC1(C)C(=O)NCCN1C(=O)c1cc2nc(-c3ccc(F)cc3)cc(C3CCCCC3)c2o1 [Example I-211],> 2000 nM,7 nM,> 2000 nM,17 nM,–,–
CC1(C)C(=O)NCCN1C(=O)c1cc2nc(-c3ccc(F)cc3)cc(C3CCC(F)(F)CC3)c2o1 [Example I-212],> 2000 nM,13 nM,> 2000 nM,43 nM,–,–
CC(C)(C)c1cc(-c2ccc(F)cc2)nc2cc(C(=O)N3CCN(C(=O)CCS(C)(=O)=O)CC3(C)C)oc12 [Example I-213],> 2000 nM,8 nM,> 2000 nM,53 nM,–,–
CC(C)(C)c1cc(C2CCCCCC2)nc2cc(C(=O)N3CCNC(=O)C3(C)C)oc12 [Example I-214],> 1000 nM,27 nM,> 1000 nM,26 nM,–,–
CC(C)(C)c1cc(C2CCCC2)nc2cc(C(=O)N3CCNC(=O)C3(C)C)oc12 [Example I-215],> 1000 nM,96 nM,> 1000 nM,300 nM,–,–
CC(C)(C)c1cc(C2CCC(F)(F)CC2)nc2cc(C(=O)N3CCNC(=O)C3(C)C)oc12 [Example I-216],> 1000 nM,68 nM,> 1000 nM,240 nM,–,–
"CC1(C)CCC(c2cc(C(C)(C)C)c3oc(C(=O)N4CCNC(=O)C4(C)C)cc3n2)CC1 [Example I-217, 4-[7-tert-butyl-5-(4,4-dimethylcyclohexyl)furo[3,2-b]pyridine-2-carbonyl]-3,3-dimethyl-piperazin-2-one]",> 2000 nM,13 nM,> 2000 nM,22 nM,–,–
CC(C)(C)c1cc(C2CCC(Cl)(Cl)CC2)nc2cc(C(=O)N3CCNC(=O)C3(C)C)oc12 [Example I-218],> 2000 nM,36 nM,> 2000 nM,44 nM,–,–
CNS(=O)(=O)CC(=O)N1CCN(C(=O)c2cc3nc(C4CCC(F)(F)CC4)cc(C(C)(C)C)c3o2)C(C)(C)C1=O [Example I-219],–,39 nM,–,50 nM,> 2000 nM,> 2000 nM
CC(C)(C)c1cc(C2CCC(F)(F)CC2)nc2cc(C(=O)N3CCN(C(=O)[C@H]4CC[C@@](C)(C(=O)O)CC4)C(=O)C3(C)C)oc12 [Example I-220],–,6.7 nM,–,13 nM,> 2000 nM,> 2000 nM
Cc1nc(C(=O)N2CCN(C(=O)c3cc4nc(C5CCC(F)(F)CC5)cc(C(C)(C)C)c4o3)C(C)(C)C2=O)n[nH]1 [Example I-221],–,32 nM,–,58 nM,> 2000 nM,> 2000 nM
CC(C)(C)c1cc(C2CCC(F)(F)CC2)nc2cc(C(=O)N3CCN(C(=O)CNS(C)(=O)=O)C(=O)C3(C)C)oc12 [Example I-222],–,275 nM,–,730 nM,> 2000 nM,> 2000 nM
Cc1cc(C(=O)N2CCN(C(=O)c3cc4nc(C5CCC(F)(F)CC5)cc(C(C)(C)C)c4o3)C(C)(C)C2=O)[nH]n1 [Example I-223],–,13.8 nM,–,39 nM,> 2000 nM,> 2000 nM
CC(C)(C)c1cc(C2CCC(F)(F)CC2)nc2cc(C(=O)N3CCN(C(=O)C4CC(O)(C(F)(F)F)C4)C(=O)C3(C)C)oc12 (stereo not drawn) [Example I-224],–,2.3 nM,–,3.3 nM,> 2000 nM,> 2000 nM
CC(C)(C)c1cc(C2CCC(F)(F)CC2)nc2cc(C(=O)N3CCN(C(=O)[C@H]4CC[C@@H](O)CC4)CC3(C)C)oc12 [Example I-225],> 2000 nM,13 nM,> 2000 nM,24 nM,–,–
CNS(=O)(=O)CCC(=O)N1CCN(C(=O)c2cc3nc(C4CCC(F)(F)CC4)cc(C(C)(C)C)c3o2)C(C)(C)C1 [Example I-226],> 2000 nM,76 nM,> 2000 nM,230 nM,–,–
Cc1n[nH]c(C(=O)N2CCN(C(=O)c3cc4nc(C5CCC(C)(C)CC5)cc(C(C)(C)C)c4o3)C(C)(C)C2)n1 [Example I-227],> 2000 nM,0.8 nM,> 2000 nM,1.2 nM,–,–
CC1(C)CCC(c2cc(C(C)(C)C)c3oc(C(=O)N4CCN(C(=O)[C@H]5C[C@@](C)(O)C5)CC4(C)C)cc3n2)CC1 [Example I-228],> 2000 nM,0.9 nM,> 2000 nM,1.4 nM,–,–
CC(C)(C)c1cc(C2CCC(F)(F)CC2)nc2cc(C(=O)N3CCN(C(=O)[C@H]4CC[C@@H](C(=O)O)CC4)CC3(C)C)oc12 [Example I-229],> 2000 nM,24 nM,> 2000 nM,28 nM,–,–
CC(C)(C)c1cc(C2CCC(F)(F)CC2)nc2cc(C(=O)N3CCN(C(=O)c4cnccn4)CC3(C)C)oc12 [Example I-230],> 2000 nM,81 nM,> 2000 nM,150 nM,–,–
CC(C)(C)c1cc(C2CCC(F)(F)CC2)nc2cc(C(=O)N3CCN(C(=O)c4ncccn4)CC3(C)C)oc12 [Example I-231],> 2000 nM,84 nM,> 2000 nM,160 nM,–,–
